Reference: paper PMC5218480 (PLoS ONE, 2017)

Tested on: MV-4-11 cells
Assay: Gene expression microarray analysis (Affymetrix PrimeView) and GSEA
Type: cell-based, human
Parameters: RFU PODN (11730768_x_at) / Fold change /veh PODN (11730768_x_at) / RFU LINC00158 (11744669_a_at) / Fold change /veh LINC00158 (11744669_a_at) / RFU DUSP10 (11751237_a_at) / Fold change /veh DUSP10 (11751237_a_at) / RFU ID3 (11757404_x_at) / Fold change /veh ID3 (11757404_x_at) / RFU PLEKHG5 (11737974_s_at) / Fold change /veh PLEKHG5 (11737974_s_at) / RFU LRRC4B (11730491_at) / Fold change /veh LRRC4B (11730491_at) / RFU GIMAP4 (11747438_a_at) / Fold change /veh GIMAP4 (11747438_a_at) / RFU KRT8 (11758183_x_at) / Fold change /veh KRT8 (11758183_x_at) / RFU CNN1 (11734310_a_at) / Fold change /veh CNN1 (11734310_a_at) / RFU VPS37D (11726825_at) / Fold change /veh VPS37D (11726825_at) / RFU C10orf10 (11716522_x_at) / Fold change /veh C10orf10 (11716522_x_at) / RFU KIR2DL2 /// KIR2DL4 /// KIR2DL5A /// KIR2DL5B /// KIR2DS1 /// KIR2DS2 /// KIR2DS3 /// KIR2DS4 /// KIR3DL3 /// KIR3DL3 /// KIR3DS1 (11738374_at) / Fold change /veh KIR2DL2 /// KIR2DL4 /// KIR2DL5A /// KIR2DL5B /// KIR2DS1 /// KIR2DS2 /// KIR2DS3 /// KIR2DS4 /// KIR3DL3 /// KIR3DL3 /// KIR3DS1 (11738374_at) / RFU C1QL1 (11718748_at) / Fold change /veh C1QL1 (11718748_at) / RFU TMPRSS4 (11747572_a_at) / Fold change /veh TMPRSS4 (11747572_a_at) / RFU HAMP (11756126_x_at) / Fold change /veh HAMP (11756126_x_at) / RFU RNFT2 (11725882_a_at) / Fold change /veh RNFT2 (11725882_a_at) / RFU NR4A2 (11747474_a_at) / Fold change /veh NR4A2 (11747474_a_at) / RFU ABCC12 (11746883_a_at) / Fold change /veh ABCC12 (11746883_a_at) / RFU TMEM136 (11760407_x_at) / Fold change /veh TMEM136 (11760407_x_at) / RFU CLDN22 /// WWC2 (11732394_at) / Fold change /veh CLDN22 /// WWC2 (11732394_at) / RFU HLA-DPB1 (11760878_x_at) / Fold change /veh HLA-DPB1 (11760878_x_at) / RFU SPINT1 (11716480_a_at) / Fold change /veh SPINT1 (11716480_a_at) / RFU GAP43 (11754022_s_at) / Fold change /veh GAP43 (11754022_s_at) / RFU A4GNT (11735810_at) / Fold change /veh A4GNT (11735810_at) / RFU PRB3 (11715151_x_at) / Fold change /veh PRB3 (11715151_x_at) / RFU TUBB4B (11761932_at) / Fold change /veh TUBB4B (11761932_at) / RFU CAPN14 (11732068_a_at) / Fold change /veh CAPN14 (11732068_a_at) / RFU TMCC2 (11721928_a_at) / Fold change /veh TMCC2 (11721928_a_at) / RFU IRGQ (11745062_a_at) / Fold change /veh IRGQ (11745062_a_at) / RFU FAM174B (11720279_a_at) / Fold change /veh FAM174B (11720279_a_at) / RFU TMPRSS4 (11748680_a_at) / Fold change /veh TMPRSS4 (11748680_a_at) / RFU FAM212B (11763350_a_at) / Fold change /veh FAM212B (11763350_a_at) / RFU PLEKHG5 (11743358_a_at) / Fold change /veh PLEKHG5 (11743358_a_at) / RFU ZSCAN30 (11745921_a_at) / Fold change /veh ZSCAN30 (11745921_a_at) / RFU CMKLR1 (11741424_a_at) / Fold change /veh CMKLR1 (11741424_a_at) / RFU LOC101060620 /// MAPK8IP1 (11723275_at) / Fold change /veh LOC101060620 /// MAPK8IP1 (11723275_at) / RFU SPTSSB (11747773_x_at) / Fold change /veh SPTSSB (11747773_x_at) / RFU PRSS12 (11739890_at) / Fold change /veh PRSS12 (11739890_at) / RFU BIN1 (11741810_x_at) / Fold change /veh BIN1 (11741810_x_at) / RFU WNT11 (11732464_a_at) / Fold change /veh WNT11 (11732464_a_at) / RFU C10orf10 (11716521_a_at) / Fold change /veh C10orf10 (11716521_a_at) / RFU C5orf56 (11738089_at) / Fold change /veh C5orf56 (11738089_at) / RFU CYB561 (11721691_x_at) / Fold change /veh CYB561 (11721691_x_at) / RFU ANKRD19P (11752326_a_at) / Fold change /veh ANKRD19P (11752326_a_at) / RFU OR2T12 /// OR2T33 /// OR2T8 (11738714_s_at) / Fold change /veh OR2T12 /// OR2T33 /// OR2T8 (11738714_s_at) / RFU VCAN (11748164_a_at) / Fold change /veh VCAN (11748164_a_at) / RFU JSRP1 (11732532_at) / Fold change /veh JSRP1 (11732532_at) / RFU KRTAP10-11 (11738290_x_at) / Fold change /veh KRTAP10-11 (11738290_x_at) / RFU MYO3A (11730013_a_at) / Fold change /veh MYO3A (11730013_a_at) / RFU EBF3 (11725865_a_at) / Fold change /veh EBF3 (11725865_a_at) / RFU CAMK2N1 (11719241_x_at) / Fold change /veh CAMK2N1 (11719241_x_at) / RFU C5orf56 (11738088_a_at) / Fold change /veh C5orf56 (11738088_a_at) / RFU OLFML3 (11715873_a_at) / Fold change /veh OLFML3 (11715873_a_at) / RFU LOC100653217 /// NTM (11731650_a_at) / Fold change /veh LOC100653217 /// NTM (11731650_a_at) / RFU MAPK11 (11762145_a_at) / Fold change /veh MAPK11 (11762145_a_at) / RFU FIZ1 (11724087_x_at) / Fold change /veh FIZ1 (11724087_x_at) / RFU OASL (11726364_x_at) / Fold change /veh OASL (11726364_x_at) / RFU SOX15 (11748057_x_at) / Fold change /veh SOX15 (11748057_x_at) / RFU CD79A (11719716_a_at) / Fold change /veh CD79A (11719716_a_at) / RFU HIST1H1D (11736915_at) / Fold change /veh HIST1H1D (11736915_at) / RFU CASKIN2 (11723855_a_at) / Fold change /veh CASKIN2 (11723855_a_at) / RFU LOC730098 (11760151_x_at) / Fold change /veh LOC730098 (11760151_x_at) / RFU OR4N2 (11742367_at) / Fold change /veh OR4N2 (11742367_at) / RFU PRRT2 (11749266_a_at) / Fold change /veh PRRT2 (11749266_a_at) / RFU SNX32 (11753110_a_at) / Fold change /veh SNX32 (11753110_a_at) / RFU CDHR5 (11726645_a_at) / Fold change /veh CDHR5 (11726645_a_at) / RFU RCAN1 (11760418_a_at) / Fold change /veh RCAN1 (11760418_a_at) / RFU FAM167A (11723789_a_at) / Fold change /veh FAM167A (11723789_a_at) / RFU FAM26E (11764081_at) / Fold change /veh FAM26E (11764081_at) / RFU ISYNA1 (11749810_s_at) / Fold change /veh ISYNA1 (11749810_s_at) / RFU ACY1 (11761880_at) / Fold change /veh ACY1 (11761880_at) / RFU 11764098_at / Fold change /veh 11764098_at / RFU SAMD14 (11745864_x_at) / Fold change /veh SAMD14 (11745864_x_at) / RFU NPB (11741838_a_at) / Fold change /veh NPB (11741838_a_at) / RFU TMPRSS6 (11731388_a_at) / Fold change /veh TMPRSS6 (11731388_a_at) / RFU KRTAP10-2 (11738614_at) / Fold change /veh KRTAP10-2 (11738614_at) / RFU ARHGAP8 /// PRR5-ARHGAP8 (11727945_x_at) / Fold change /veh ARHGAP8 /// PRR5-ARHGAP8 (11727945_x_at) / RFU KRTAP5-7 /// NADSYN1 (11734609_at) / Fold change /veh KRTAP5-7 /// NADSYN1 (11734609_at) / RFU RASL12 (11751679_a_at) / Fold change /veh RASL12 (11751679_a_at) / RFU CDKN2B (11736163_a_at) / Fold change /veh CDKN2B (11736163_a_at) / RFU PRF1 (11729649_at) / Fold change /veh PRF1 (11729649_at) / RFU, ZNF638 /// ZNF638-IT1 / Fold change vs veh, ZNF638 /// ZNF638-IT1 / RFU, PANK3 / Fold change vs veh, PANK3 / RFU, SH3YL1 / Fold change vs veh, SH3YL1 / RFU, ZEB2 / Fold change vs veh, ZEB2 / RFU, NRIP1 / Fold change vs veh, NRIP1 / RFU, PTTG1IP / Fold change vs veh, PTTG1IP / RFU, CAPN2 / Fold change vs veh, CAPN2 / RFU, MED14 / Fold change vs veh, MED14 / RFU, SNORA58 / Fold change vs veh, SNORA58 / RFU, C1orf63 / Fold change vs veh, C1orf63 / RFU, LRRFIP1 / Fold change vs veh, LRRFIP1 / RFU, NDUFAF7 / Fold change vs veh, NDUFAF7 / RFU, SLC12A2 / Fold change vs veh, SLC12A2 / RFU, IBTK / Fold change vs veh, IBTK / RFU, ESF1 / Fold change vs veh, ESF1 / Fold change vs veh, TMEM50B / RFU, TAOK1 / Fold change vs veh, TAOK1 / RFU, ACBD3 / Fold change vs veh, ACBD3 / RFU, TMA16 / Fold change vs veh, TMA16 / RFU, RWDD3 / Fold change vs veh, RWDD3 / RFU, BCAT1 / Fold change vs veh, BCAT1 / RFU, EDEM3 / Fold change vs veh, EDEM3 / RFU, TMEM33 / Fold change vs veh, TMEM33 / RFU, WDR75 / Fold change vs veh, WDR75 / RFU, AHCTF1 / Fold change vs veh, AHCTF1 / RFU, TFRC / Fold change vs veh, TFRC / RFU, ZDHHC17 / Fold change vs veh, ZDHHC17 / RFU, NOM1 / Fold change vs veh, NOM1 / RFU, ARL8B / Fold change vs veh, ARL8B / RFU, ZBTB11 / Fold change vs veh, ZBTB11 / RFU, TAMM41 / Fold change vs veh, TAMM41 / RFU, KIAA1704 /// LOC100996395 / Fold change vs veh, KIAA1704 /// LOC100996395 / RFU, ING1 / Fold change vs veh, ING1 / RFU, TRMT61B / Fold change vs veh, TRMT61B / RFU, FUBP3 / Fold change vs veh, FUBP3 / RFU, TP53 / Fold change vs veh, TP53 / RFU, TNKS2 / Fold change vs veh, TNKS2 / RFU, ZFP14 / Fold change vs veh, ZFP14 / RFU, ACTR2 / Fold change vs veh, ACTR2 / RFU, PPP3R1 / Fold change vs veh, PPP3R1 / RFU, PIK3R1 / Fold change vs veh, PIK3R1 / RFU, HNRNPA1 / Fold change vs veh, HNRNPA1 / RFU, RNF170 / Fold change vs veh, RNF170 / RFU, ZNF28 / Fold change vs veh, ZNF28 / RFU, RNGTT / Fold change vs veh, RNGTT / RFU, OGT / Fold change vs veh, OGT / RFU, BRD1 / Fold change vs veh, BRD1 / RFU, MARS / Fold change vs veh, MARS / RFU, ZNF655 / Fold change vs veh, ZNF655 / RFU, FAHD1 / Fold change vs veh, FAHD1 / RFU, BDP1 / Fold change vs veh, BDP1 / RFU, LRRCC1 / Fold change vs veh, LRRCC1 / RFU, ARID1A / Fold change vs veh, ARID1A / RFU, ZNF146 / Fold change vs veh, ZNF146 / RFU, ZNF330 / Fold change vs veh, ZNF330 / RFU, GPN3 / Fold change vs veh, GPN3 / RFU, C9orf123 / Fold change vs veh, C9orf123 / RFU, N4BP2L2 / Fold change vs veh, N4BP2L2 / RFU, ARFIP1 / Fold change vs veh, ARFIP1 / RFU, FAM179B / Fold change vs veh, FAM179B / RFU, BCL10 / Fold change vs veh, BCL10 / RFU, UHRF1BP1L / Fold change vs veh, UHRF1BP1L / RFU, BET1 / Fold change vs veh, BET1 / RFU, CNOT2 / Fold change vs veh, CNOT2 / RFU, ZNF268 / Fold change vs veh, ZNF268 / Fold change vs veh, ZNF507 / RFU, DGCR2 / Fold change vs veh, DGCR2 / RFU, WDSUB1 / Fold change vs veh, WDSUB1 / Fold change vs veh, HSP90B1 /// MIR3652 / RFU, ADSS / Fold change vs veh, ADSS / RFU, GK / Fold change vs veh, GK / RFU, ZNF148 / Fold change vs veh, ZNF148 / RFU, TAF9 / Fold change vs veh, TAF9 / RFU, SLC1A5 / Fold change vs veh, SLC1A5 / RFU, SLMO2 / Fold change vs veh, SLMO2 / RFU, ABCC4 / Fold change vs veh, ABCC4 / RFU, LOC101060439 /// RAP1B / Fold change vs veh, LOC101060439 /// RAP1B / RFU, RFX7 / Fold change vs veh, RFX7 / RFU, GTPBP10 / Fold change vs veh, GTPBP10 / RFU, CNEP1R1 / Fold change vs veh, CNEP1R1 / RFU, BIVM-ERCC5 /// ERCC5 / Fold change vs veh, BIVM-ERCC5 /// ERCC5 / RFU, ILF3 / Fold change vs veh, ILF3 / RFU 11762660_at / Fold change /veh 11762660_at / RFU VCAN (11757783_s_at) / Fold change /veh VCAN (11757783_s_at) / RFU DDX43 (11728927_at) / Fold change /veh DDX43 (11728927_at) / RFU KRT8 (11758188_x_at) / Fold change /veh KRT8 (11758188_x_at) / RFU NKD1 (11759106_at) / Fold change /veh NKD1 (11759106_at) / RFU SRD5A1 (11742802_a_at) / Fold change /veh SRD5A1 (11742802_a_at) / RFU TPSAB1 /// TPSB2 (11721975_s_at) / Fold change /veh TPSAB1 /// TPSB2 (11721975_s_at) / RFU GSTM3 (11746129_a_at) / Fold change /veh GSTM3 (11746129_a_at) / RFU IL23R (11737362_x_at) / Fold change /veh IL23R (11737362_x_at) / RFU TMEM51 (11727254_a_at) / Fold change /veh TMEM51 (11727254_a_at) / RFU PIWIL2 (11732686_x_at) / Fold change /veh PIWIL2 (11732686_x_at) / RFU ORM1 (11744905_x_at) / Fold change /veh ORM1 (11744905_x_at) / RFU CCDC152 (11743942_at) / Fold change /veh CCDC152 (11743942_at) / RFU ECM1 (11717891_a_at) / Fold change /veh ECM1 (11717891_a_at) / RFU IL23R (11748794_a_at) / Fold change /veh IL23R (11748794_a_at) / RFU TNFAIP8L3 (11732012_x_at) / Fold change /veh TNFAIP8L3 (11732012_x_at) / RFU MBOAT4 (11741988_at) / Fold change /veh MBOAT4 (11741988_at) / RFU 11764193_at / Fold change /veh 11764193_at / RFU TMEM53 (11763286_at) / Fold change /veh TMEM53 (11763286_at) / RFU MAGEB2 (11727129_at) / Fold change /veh MAGEB2 (11727129_at) / RFU TMEM200A (11744735_a_at) / Fold change /veh TMEM200A (11744735_a_at) / RFU CCDC152 (11751479_a_at) / Fold change /veh CCDC152 (11751479_a_at) / RFU FAM211A (11726209_a_at) / Fold change /veh FAM211A (11726209_a_at) / RFU RGS16 (11746705_a_at) / Fold change /veh RGS16 (11746705_a_at) / RFU VCAN (11755009_s_at) / Fold change /veh VCAN (11755009_s_at) / RFU RHOB (11743442_s_at) / Fold change /veh RHOB (11743442_s_at) / RFU RGS16 (11720943_a_at) / Fold change /veh RGS16 (11720943_a_at) / RFU RGS16 (11720944_at) / Fold change /veh RGS16 (11720944_at) / RFU, VPS4B / Fold change vs veh, VPS4B / RFU, CREB1 / Fold change vs veh, CREB1 / RFU, DNAJC13 / Fold change vs veh, DNAJC13 / RFU, GNAQ / Fold change vs veh, GNAQ / RFU, CDK5R1 / Fold change vs veh, CDK5R1 / RFU, ZRANB3 / Fold change vs veh, ZRANB3 / RFU, CUL4A / Fold change vs veh, CUL4A / RFU, CCNY / Fold change vs veh, CCNY / RFU, UFL1 / Fold change vs veh, UFL1 / RFU, COG3 / Fold change vs veh, COG3 / RFU, DIAPH2 / Fold change vs veh, DIAPH2 / RFU, SKA2 / Fold change vs veh, SKA2 / RFU, AFF3 / Fold change vs veh, AFF3 / RFU, LMF1 / Fold change vs veh, LMF1 / RFU, IPO11 / Fold change vs veh, IPO11 / RFU, DFFB / Fold change vs veh, DFFB / RFU, FOXP1 / Fold change vs veh, FOXP1 / RFU, CARD8 / Fold change vs veh, CARD8 / RFU, STRN3 / Fold change vs veh, STRN3 / RFU, ADK / Fold change vs veh, ADK / RFU, RASSF2 / Fold change vs veh, RASSF2 / RFU, WIPF1 / Fold change vs veh, WIPF1 / RFU, LARP1B / Fold change vs veh, LARP1B / RFU, RASA1 / Fold change vs veh, RASA1 / RFU, RB1 / Fold change vs veh, RB1 / RFU, PPFIA1 / Fold change vs veh, PPFIA1 / RFU, MAT2A / Fold change vs veh, MAT2A / RFU, CCT5 / Fold change vs veh, CCT5 / RFU, WDR92 / Fold change vs veh, WDR92 / RFU, CUX1 / Fold change vs veh, CUX1 / RFU, TTC7A / Fold change vs veh, TTC7A / RFU, TMEM135 / Fold change vs veh, TMEM135 / RFU, DEPTOR / Fold change vs veh, DEPTOR / RFU, CPM / Fold change vs veh, CPM / RFU, DNAJB6 / Fold change vs veh, DNAJB6 / RFU, CACNA2D3 / Fold change vs veh, CACNA2D3 / RFU, DTX4 / Fold change vs veh, DTX4 / RFU, TFCP2 / Fold change vs veh, TFCP2 / RFU, GMCL1 /// GMCL1P1 / Fold change vs veh, GMCL1 /// GMCL1P1 / RFU, AEBP2 / Fold change vs veh, AEBP2 / RFU, SNHG1 /// SNORD22 /// SNORD25 /// SNORD26 /// SNORD27 /// SNORD28 /// SNORD29 /// SNORD31 / Fold change vs veh, SNHG1 /// SNORD22 /// SNORD25 /// SNORD26 /// SNORD27 /// SNORD28 /// SNORD29 /// SNORD31 / Fold change (Aza/veh), C12orf56 (ProbeSet 11735607_a_at) / Fold change (ACY-1035/veh), C12orf56 (ProbeSet 11735607_a_at) / Fold change (Aza/veh), FGFR1OP (ProbeSet 11751329_s_at) / Fold change (ACY-1035/veh), FGFR1OP (ProbeSet 11751329_s_at) / Fold change (Aza/veh), VPS36 (ProbeSet 11739960_a_at) / Fold change (ACY-1035/veh), VPS36 (ProbeSet 11739960_a_at) / RFU SYPL1 (11715823_x_at) / Fold change /veh SYPL1 (11715823_x_at) / RFU IGFBP7 (11715501_s_at) / Fold change /veh IGFBP7 (11715501_s_at) / RFU REEP3 (11722064_at) / Fold change /veh REEP3 (11722064_at) / RFU IGLL1 (11728026_x_at) / Fold change /veh IGLL1 (11728026_x_at): dose or concentration left out as unconfirmed
Conditions: MV-4-11 cells, 48 hours

## Nc1ncn([C@@H]2O[C@H](CO)[C@@H](O)[C@H]2O)c(=O)n1 [azacitidine]
  Fold change /veh RASL12 (11751679_a_at): 0.96
